From PubChem BioAssay (NCI)
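Grown in 96-well plates, cells were treated for 48 hours with each compound at five concentrations. Insufficient inhibition: endpoint recorded as highest concentration tested. At the TGI there is no net growth.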

Columns and labels:
Experiment in all cases: NCI anticancer screen, dose series, 48 h
COLO 205 colon = system: COLO 205 colon
CAKI-1 renal = system: CAKI-1 renal
SN12C renal = system: SN12C renal
LOX IMVI melanoma = system: LOX IMVI melanoma
HCT-116 colon = system: HCT-116 colon
DU-145 prostate = system: DU-145 prostate
MCF7 breast = system: MCF7 breast
SK-MEL-2 melanoma = system: SK-MEL-2 melanoma
UACC-62 melanoma = system: UACC-62 melanoma
SK-OV-3 ovarian = system: SK-OV-3 ovarian

With `CC1=NN(c2nc(N)nc(CO)n2)C(C)(C)C1` as the compound, how does the TGI (COLO 205 colon) read?
Its TGI is > 100 µM.

What about the TGI (CAKI-1 renal) of the same compound?
Its TGI is > 100 µM.

And the TGI (SN12C renal)?
The TGI was > 100 µM.

What about the TGI (LOX IMVI melanoma) of the same compound?
The TGI was > 100 µM.

What about the TGI (HCT-116 colon) of the same compound?
The TGI was > 100 µM.

What about the TGI (DU-145 prostate) of the same compound?
Its TGI is > 100 µM.

And the TGI (MCF7 breast)?
Its TGI is > 100 µM.

What about the TGI (SK-MEL-2 melanoma) of the same compound?
Its TGI is > 100 µM.

What about the TGI (UACC-62 melanoma) of the same compound?
The TGI was > 100 µM.

What about the TGI (SK-OV-3 ovarian) of the same compound?
Its TGI is > 100 µM.

Which TGI (COLO 205 colon) does the source give for `CCOC(=O)C(O)(CC1=NC(C(=O)OC)(C(=O)OC)C(c2cccc(C=O)c2)O1)C(=O)OCC` (stereo not given) here?
Its TGI is > 100 µM.

And the TGI (CAKI-1 renal)?
The TGI was > 100 µM.

And the TGI (SN12C renal)?
Its TGI is > 100 µM.

What about the TGI (LOX IMVI melanoma) of the same compound?
Its TGI is > 100 µM.

And the TGI (HCT-116 colon)?
The TGI was > 100 µM.

And the TGI (DU-145 prostate)?
Its TGI is > 100 µM.

What about the TGI (MCF7 breast) of the same compound?
The TGI was > 100 µM.

And the TGI (SK-MEL-2 melanoma)?
Its TGI is > 100 µM.

And the TGI (UACC-62 melanoma)?
Its TGI is > 100 µM.

What about the TGI (SK-OV-3 ovarian) of the same compound?
The TGI was > 100 µM.

With `CCOC(=O)Cc1c(C(=O)OCC)[n+](=O)c2cc(Cl)c(Cl)cc2n1[O-]` as the compound, how does the TGI (COLO 205 colon) read?
Its TGI is 3.27 µM.

What about the TGI (CAKI-1 renal) of the same compound?
Its TGI is 11.1 µM.

What about the TGI (SN12C renal) of the same compound?
The TGI was 6.95 µM.

And the TGI (LOX IMVI melanoma)?
The TGI was 4.65 µM.

What about the TGI (HCT-116 colon) of the same compound?
The TGI was 7.27 µM.

And the TGI (DU-145 prostate)?
Its TGI is 3.68 µM.

And the TGI (MCF7 breast)?
The TGI was 13.3 µM.

And the TGI (SK-MEL-2 melanoma)?
The TGI was 7.73 µM.

And the TGI (UACC-62 melanoma)?
Its TGI is 5.45 µM.

What about the TGI (SK-OV-3 ovarian) of the same compound?
Its TGI is 11.9 µM.

With `Cc1ccc(C2=CC(=O)/C(=C\C(=O)c3ccc(Br)cc3)O2)c(C)c1` as the compound, how does the TGI (COLO 205 colon) read?
The TGI was 14.3 µM.

What about the TGI (CAKI-1 renal) of the same compound?
The TGI was 9.79 µM.

And the TGI (SN12C renal)?
Its TGI is > 21.8 µM.

What about the TGI (LOX IMVI melanoma) of the same compound?
The TGI was > 21.1 µM.

And the TGI (HCT-116 colon)?
Its TGI is 19.8 µM.

And the TGI (DU-145 prostate)?
Its TGI is > 69.5 µM.

What about the TGI (MCF7 breast) of the same compound?
The TGI was 23.8 µM.

And the TGI (SK-MEL-2 melanoma)?
Its TGI is > 100 µM.

What about the TGI (UACC-62 melanoma) of the same compound?
The TGI was 22.7 µM.

And the TGI (SK-OV-3 ovarian)?
Its TGI is 29 µM.

Which TGI (COLO 205 colon) does the source give for `CCOC(=O)C(C)c1nc2cc(F)c(F)cc2[nH]c1=O` (stereo not given) here?
Its TGI is > 100 µM.

What about the TGI (CAKI-1 renal) of the same compound?
Its TGI is > 100 µM.

And the TGI (SN12C renal)?
Its TGI is > 100 µM.

And the TGI (LOX IMVI melanoma)?
The TGI was > 100 µM.

What about the TGI (HCT-116 colon) of the same compound?
Its TGI is > 100 µM.

And the TGI (DU-145 prostate)?
The TGI was > 100 µM.

What about the TGI (MCF7 breast) of the same compound?
The TGI was > 100 µM.

And the TGI (SK-MEL-2 melanoma)?
Its TGI is > 100 µM.

And the TGI (UACC-62 melanoma)?
Its TGI is > 100 µM.

And the TGI (SK-OV-3 ovarian)?
The TGI was > 100 µM.

Which results are given for `Cc1ccc(/C=c2\cc3oc(=O)c4cccc(c4-3)c2=O)cc1`?
TGI (COLO 205 colon): > 100 µM; TGI (CAKI-1 renal): > 100 µM; TGI (SN12C renal): > 100 µM; TGI (LOX IMVI melanoma): > 100 µM; TGI (HCT-116 colon): > 100 µM; TGI (DU-145 prostate): > 100 µM; TGI (MCF7 breast): > 100 µM; TGI (SK-MEL-2 melanoma): > 100 µM; TGI (UACC-62 melanoma): > 100 µM; TGI (SK-OV-3 ovarian): > 100 µM

What does the source list for `O/N=C\c1c2c(cc3c1CCC3)CCC2`?
TGI (COLO 205 colon): > 100 µM; TGI (CAKI-1 renal): > 100 µM; TGI (SN12C renal): > 100 µM; TGI (LOX IMVI melanoma): > 100 µM; TGI (HCT-116 colon): > 100 µM; TGI (DU-145 prostate): > 100 µM; TGI (MCF7 breast): > 100 µM; TGI (SK-MEL-2 melanoma): > 100 µM; TGI (UACC-62 melanoma): > 100 µM; TGI (SK-OV-3 ovarian): > 100 µM

What does the source list for `O=C(NNC(=O)c1ccco1)c1ccco1`?
TGI (COLO 205 colon): > 100 µM; TGI (CAKI-1 renal): > 100 µM; TGI (SN12C renal): > 100 µM; TGI (LOX IMVI melanoma): > 100 µM; TGI (HCT-116 colon): > 100 µM; TGI (DU-145 prostate): > 100 µM; TGI (MCF7 breast): > 100 µM; TGI (SK-MEL-2 melanoma): > 100 µM; TGI (UACC-62 melanoma): > 100 µM; TGI (SK-OV-3 ovarian): > 100 µM

For `Nc1cccc(-c2cc(=O)c3cc4c(cc3[nH]2)OCO4)c1`, which TGI (COLO 205 colon) is on record?
Its TGI is 5.93 µM.

What about the TGI (CAKI-1 renal) of the same compound?
Its TGI is > 100 µM.

And the TGI (SN12C renal)?
The TGI was > 100 µM.

What about the TGI (LOX IMVI melanoma) of the same compound?
The TGI was 59.7 µM.

And the TGI (HCT-116 colon)?
Its TGI is 3.62 µM.

And the TGI (DU-145 prostate)?
The TGI was > 100 µM.

And the TGI (MCF7 breast)?
Its TGI is > 100 µM.

And the TGI (SK-MEL-2 melanoma)?
The TGI was 5.72 µM.

What about the TGI (UACC-62 melanoma) of the same compound?
The TGI was 11.5 µM.

What about the TGI (SK-OV-3 ovarian) of the same compound?
Its TGI is > 28.5 µM.

Which results are given for `COC(=O)c1ccccc1CC1Cc2c(C)ccc(C)c2C1=O` (stereo not given)?
TGI (COLO 205 colon): 34.3 µM; TGI (CAKI-1 renal): > 100 µM; TGI (SN12C renal): > 100 µM; TGI (LOX IMVI melanoma): 37.4 µM; TGI (HCT-116 colon): 56 µM; TGI (DU-145 prostate): > 100 µM; TGI (MCF7 breast): 30 µM; TGI (SK-MEL-2 melanoma): 38.4 µM; TGI (UACC-62 melanoma): > 100 µM; TGI (SK-OV-3 ovarian): > 100 µM
